{
  "source": "PubChem BioAssay AID328",
  "about": "(DTP/NCI, 2004)",
  "tested_on": "BDF1 mice, P388 leukemia ip, median survival T/C",
  "test": "NCI In Vivo Anticancer Drug Screen. Data for tumor model P388 Leukemia (intraperitoneal) in B6D2F1 (BDF1) mice",
  "settings": "endpoint: median survival time, higher = longer survival",
  "summary_of_the_method": "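T/C = treated-group survival ÷ vehicle-control survival; tumour transplanted into mice before dosing.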",
  "key": {"[1]": {"settings": "dose: 50.0 mg/kg/injection, schedule: Q01DX009 (ip), vehicle: saline with Tween-80"}, "[2]": {"settings": "dose: 100.0 mg/kg/injection, schedule: Q01DX009 (ip), vehicle: saline with Tween-80"}, "[3]": {"settings": "dose: 200.0 mg/kg/injection, schedule: Q01DX009 (ip), vehicle: saline with Tween-80"}, "[4]": {"settings": "dose: 132.0 mg/kg/injection, schedule: Q04DX003 (ip), vehicle: saline with Tween-80"}, "[5]": {"settings": "dose: 200.0 mg/kg/injection, schedule: Q04DX003 (ip), vehicle: saline with Tween-80"}, "[6]": {"settings": "dose: 50.0 mg/kg/injection, schedule: Q01DX009 (ip), vehicle: saline"}, "[7]": {"settings": "dose: 100.0 mg/kg/injection, schedule: Q01DX009 (ip), vehicle: saline"}},
  "note": "Values joined by “and” are separate entries in the source; they are usually repeats but may differ in a detail not shown here. Identical values can stand only once. Inconclusive results and toxic doses are left out.",
  "data": [
    {"smiles": "CC1CCCCC1O", "note": "(stereo not drawn)", "values": [
      {"measurement": "T/C", "setting": "[1]", "value": "100 % of control and 109 % of control"},
      {"measurement": "T/C", "setting": "[2]", "value": "93 % of control and 109 % of control"},
      {"measurement": "T/C", "setting": "[3]", "value": "111 % of control and 95 % of control"}
    ]},
    {"smiles": "CCOC(=O)C(Cc1ccc(N(CCCl)CCCl)cc1)NC(=O)C(Cc1ccccc1)NC=O", "note": "(stereo not drawn)", "values": [
      {"measurement": "T/C", "setting": "dose: 12.5 mg/kg/injection, schedule: Q04DX003 (ip), vehicle: saline with Tween-80", "value": "118 % of control"},
      {"measurement": "T/C", "setting": "[1]", "value": "168 % of control"},
      {"measurement": "T/C", "setting": "dose: 50.0 mg/kg/injection, schedule: Q04DX003 (ip), vehicle: saline with Tween-80", "value": "172 % of control"},
      {"measurement": "T/C", "setting": "[2]", "value": "90 % of control"},
      {"measurement": "T/C", "setting": "[4]", "value": "227 % of control"},
      {"measurement": "T/C", "setting": "dose: 133.0 mg/kg/injection, schedule: Q04DX003 (ip), vehicle: saline with Tween-80", "value": "200 % of control"},
      {"measurement": "T/C", "setting": "[5]", "value": "254 % of control and 215 % of control"}
    ]},
    {"smiles": "CCC(C)C(=O)/C=C/c1ccccc1", "note": "(stereo not drawn)", "values": [
      {"measurement": "T/C", "setting": "[1]", "value": "96 % of control"},
      {"measurement": "T/C", "setting": "[2]", "value": "107 % of control"},
      {"measurement": "T/C", "setting": "[3]", "value": "114 % of control"}
    ]},
    {"smiles": "Oc1ccc2ccccc2c1Cc1c(O)ccc2ccccc12", "values": [
      {"measurement": "T/C", "setting": "dose: 50.0 mg/kg/injection, schedule: Q04DX003 (ip), vehicle: other", "value": "95 % of control"},
      {"measurement": "T/C", "setting": "dose: 100.0 mg/kg/injection, schedule: Q04DX003 (ip), vehicle: other", "value": "95 % of control"},
      {"measurement": "T/C", "setting": "dose: 200.0 mg/kg/injection, schedule: Q04DX003 (ip), vehicle: other", "value": "104 % of control"}
    ]},
    {"smiles": "CC[As](=O)(O)CC", "values": [
      {"measurement": "T/C", "setting": "[6]", "value": "103 % of control"},
      {"measurement": "T/C", "setting": "dose: 50.0 mg/kg/injection, schedule: Q04DX003 (ip), vehicle: saline", "value": "100 % of control"},
      {"measurement": "T/C", "setting": "[7]", "value": "100 % of control and 108 % of control"},
      {"measurement": "T/C", "setting": "dose: 132.0 mg/kg/injection, schedule: Q01DX009 (ip), vehicle: saline", "value": "95 % of control"},
      {"measurement": "T/C", "setting": "dose: 200.0 mg/kg/injection, schedule: Q04DX003 (ip), vehicle: saline", "value": "108 % of control"}
    ]},
    {"smiles": "CC(NC=O)C(=O)NC(CC(=O)O)C(=O)O", "note": "(stereo not drawn)", "values": [
      {"measurement": "T/C", "setting": "dose: 50.0 mg/kg/injection, schedule: Q01DX005 (ip), vehicle: saline", "value": "95 % of control"},
      {"measurement": "T/C", "setting": "dose: 100.0 mg/kg/injection, schedule: Q01DX005 (ip), vehicle: saline", "value": "93 % of control"},
      {"measurement": "T/C", "setting": "dose: 200.0 mg/kg/injection, schedule: Q01DX005 (ip), vehicle: saline", "value": "89 % of control"}
    ]},
    {"smiles": "CC(C#N)(C#N)N=Nc1ccc(Cl)cc1Cl", "values": [
      {"measurement": "T/C", "setting": "[2]", "value": "116 % of control"}
    ]},
    {"smiles": "O=P(OCc1ccccc1)(N(CCCl)CCCl)N1CCN(P(=O)(OCc2ccccc2)N(CCCl)CCCl)CC1", "note": "(stereo not drawn)", "values": [
      {"measurement": "T/C", "setting": "[4]", "value": "172 % of control"},
      {"measurement": "T/C", "setting": "[5]", "value": "154 % of control and 172 % of control"}
    ]},
    {"smiles": "CC1=CCCC2(CCC3(C)CC32)C1(C)C", "note": "(stereo not drawn)", "values": [
      {"measurement": "T/C", "setting": "dose: 45.0 mg/kg/injection, schedule: Q01DX009 (ip), vehicle: saline", "value": "90 % of control"},
      {"measurement": "T/C", "setting": "[6]", "value": "100 % of control"},
      {"measurement": "T/C", "setting": "dose: 67.0 mg/kg/injection, schedule: Q01DX009 (ip), vehicle: saline", "value": "109 % of control"},
      {"measurement": "T/C", "setting": "[7]", "value": "113 % of control and 120 % of control"}
    ]},
    {"smiles": "O/N=C\\c1c(O)ccc2ccccc12", "values": [
      {"measurement": "T/C", "setting": "dose: 100.0 mg/kg/injection, schedule: Q01DX001 (ip), vehicle: saline with Tween-80", "value": "106 % of control"},
      {"measurement": "T/C", "setting": "dose: 200.0 mg/kg/injection, schedule: Q01DX001 (ip), vehicle: saline with Tween-80", "value": "105 % of control"},
      {"measurement": "T/C", "setting": "dose: 400.0 mg/kg/injection, schedule: Q01DX001 (ip), vehicle: saline with Tween-80", "value": "106 % of control"}
    ]},
    {"smiles": "O=P(N1CC1)(N1CC1)N1CC1", "values": [
      {"measurement": "T/C", "setting": "dose: 3.0 mg/kg/injection, schedule: Q01DX010 (ip), vehicle: saline", "value": "204 % of control"}
    ]},
    {"smiles": "COC(=S)Nc1ccc2c(c1)nc(-c1ccccc1)c1cc(NC(=S)OC)ccc12", "values": [
      {"measurement": "T/C", "setting": "dose: 100.0 mg/kg/injection, schedule: Q04DX002 (ip), vehicle: saline with Tween-80", "value": "101 % of control"},
      {"measurement": "T/C", "setting": "dose: 200.0 mg/kg/injection, schedule: Q04DX002 (ip), vehicle: saline with Tween-80", "value": "101 % of control"},
      {"measurement": "T/C", "setting": "dose: 400.0 mg/kg/injection, schedule: Q04DX002 (ip), vehicle: saline with Tween-80", "value": "90 % of control"}
    ]}
  ]
}
